Target: T1, FPR1 (UniProt P21462)
T1 sequence (P21462 1-350): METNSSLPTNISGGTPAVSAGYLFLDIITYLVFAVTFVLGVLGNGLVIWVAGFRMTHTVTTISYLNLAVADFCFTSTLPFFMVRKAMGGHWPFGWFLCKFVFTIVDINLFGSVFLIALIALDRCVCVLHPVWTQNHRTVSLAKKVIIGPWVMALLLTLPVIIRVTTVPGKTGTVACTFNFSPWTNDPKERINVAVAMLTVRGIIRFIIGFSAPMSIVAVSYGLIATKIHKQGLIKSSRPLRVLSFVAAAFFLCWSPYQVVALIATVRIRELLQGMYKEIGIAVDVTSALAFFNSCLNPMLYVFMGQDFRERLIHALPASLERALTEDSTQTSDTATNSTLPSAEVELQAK
Assay: fMLP-FPR1 mediated intracellular calcium signaling assay in FPR1-overexpressing 293T cells
Format: cell-based, human or mouse
Conditions: inhibition of fMLP-stimulated intracellular calcium change; hFPR1 or mFPR1 overexpressing 293T cells; 10 min pre-incubation; INDO-1 AM, FACS; read-out: IC50 (nM), potency in calcium signaling assay
Experimental: The effects of the compounds of this disclosure on regulating the FPR1-mediated cell signaling were measured by monitoring the cellular calcium level change, as illustrated by the exemplary examples in Table 2. The dose responses of the illustrated examples are reported categorically using the following ranking criteria: *** (IC50≤100 nM); ** (IC50≥100 to ≤1000 nM); * (IC50≥1000 to ≤10,000 nM); N.D.—not detected.
The coding DNA sequence (CDS) of human FPR1 (NM_001193306) and mouse FPR1 (NM_013521) were cloned and inserted to the lentivirus vector GV367 (Vector information: • http://www.genechem.com.cn/index/supports/tool_search.html?keywords=GV367) under the conduction of pCMV promoter. 293T cells were cultured in H-DMEM supplemented with 10% FBS and 1% penicillin—streptomycin (PS) at 37° C. in 5% CO2 Incubator. […] The overexpression of human or mouse FPR1 in 293 T cells were detected by immunostaining with anti-mouse or human FPR1 antibodies (Biolegend or Antibody Online). […]
Cultured hFPR1 or mFPR1 overexpressing 293T cells were labeled with 1 μM INDO-1 AM calcium sensor dye (eBioscience) for 30 min at 37° C. […] The cytoplasmic calcium levels were then measured by FACS Aria III at 37° C. prior to and after the stimulation of fMLP. […] The change of intracellular calcium was calculated as follow: (basal value-minimum value)/basal value×100%. […]

Cc1ccc(O)c(-c2onc3c2C(c2ccc(C(F)(F)F)cc2)N(C2CCOCC2)C3=O)c1 (racemic) [Compound 1, rac-3-(2-hydroxy-5-methylphenyl)-5-(tetrahydro-2H-pyran-4-yl)-4-(4-(trifluoromethyl)phenyl)-4,5-dihydro-6H-pyrrolo[3,4-c]isoxazol-6-one]
IC50: 1000 to 10000 nM

Cc1ccc(O)c(-c2noc3c2C(c2ccc(C(F)(F)F)cc2)N(C2CCOCC2)C3=O)c1 (racemic) [Compound 2, rac-3-(2-hydroxy-5-methylphenyl)-5-(tetrahydro-2H-pyran-4-yl)-4-(4-(trifluoromethyl)phenyl)-4,5-dihydro-6H-pyrrolo[3,4-d]isoxazol-6-one]
IC50: 100 to 1000 nM

— US20240300973A1, “MODULATORS OF FPR1 AND METHODS OF USING THE SAME” (BIOFRONT THERAPEUTICS (BEIJING) CO., LTD., priority 2021, published 2024)
